{
  "source": "patent US7297523B2",
  "about": "“Human elongase genes and uses thereof” (Xenon Pharmaceuticals Inc., priority 2000, dated 2007)",
  "key": {"D5D": {"system": "D5D", "assay": "D5D activity in liver microsomes from STZ-induced diabetic rats", "assay_type": "in vivo, rat", "details": "compared to control", "method": "(§1) The desaturase and elongase enzyme activities in liver microsomes from streptozotocin (STZ)-induced diabetic rats was assayed at 2 and 7 weeks post-induction. Table 1 indicates the decrease in activities compared to a control, observed during the course of the experiment. An equivalent decrease in elongation activity in STZ-induced diabetic rats has been previously reported (Suneja et al., 1990, Biochim. Biophys. Acta, 1042: 81-85)."}, "Leukocytes [1]": {"system": "Leukocytes", "assay": "Conversion of 18:2n-6 into 20:2n-6 in leukocytes from STZ-induced diabetic rats", "assay_type": "in vivo, rat", "details": "for Conversion of 18:2n-6 into 20:2n-6: leukocytes incubated for 24 h, mean ± S.D. of 6 rats"}, "Elongase": {"system": "Elongase", "assay": "Elongase activity in liver microsomes from STZ-induced diabetic rats", "assay_type": "in vivo, rat", "details": "compared to control", "method": "as §1"}, "D6D": {"system": "D6D", "assay": "D6D activity in liver microsomes from STZ-induced diabetic rats", "assay_type": "in vivo, rat", "details": "compared to control", "method": "as §1"}, "Leukocytes [2]": {"system": "Leukocytes", "assay": "Conversion of 18:3n-6 into 20:3n-6 in leukocytes from STZ-induced diabetic rats", "assay_type": "in vivo, rat"}, "18:3n-6": {"system": "18:3n-6", "assay": "Elongation of [1-14C]18:3n-6 in yeast expressing human elongases (RP-HPLC)", "details": "for Percent Elongation of 18:3n-6 to 20:3: product 20:3n-6; for Percent Elongation of 18:3n-6 to 22:3: product 22:3n-6", "text": "(§2) For the expression of ELG1, ELG2, ELG3, ELG4, ELG5, ELG6 or ELG7 the yeast were transformed with pTh1009.1, pTh1014.1, pTh1015.1, pTh1021.1, pTh1018.1, pTh1041.1 or pTh1044.1, respectively. For the expression of ELG1/V5-His, ELG2/V5-His, ELG3/V5-His, ELG4/V5-His, ELG5/V5-His, ELG6/V5 -His or ELG7/V5-His the yeast were transformed with pTh1009.2, pTh1014.2, pTh1017.1, pTh1021.2, pTh1019.1, pTh1042.1 or pTh1045.1, respectively. Recombinant yeast cells were selected on SC-U medium.\n(§3) Transformed yeast (approximately 3.2×10^6 cells/ml; O.D.600 0.4) were incubated in a 125 ml Erlenmeyer containing 10 ml of SC-U medium with 1% raffinose, 1% tergitol and 25 μM of the lithium salts of either [1-^14C]18:3n-3 (1 μCi), [1-^14C]18:3n-6 (1 μCi), [1-^14C]20:4n-6 (2 μCi), or [1-^14C]20:5n-3 (2 μCi). After 4 h incubation in an orbital incubator at 270 rpm and 30° C., cells reached the log phase and the transgene, expression was induced with galactose 30° C., cells reached the log phase and the transgene expression was induced with galactose (2% final concentration). The yeast were incubated for an additional 19 h and then harvested by centrifugation at 5000×g for 10 minutes at 4° C.\n(§4) Cells were washed with Tris-HCl buffer (100 mM, pH 8.0) containing 0.1% BSA and total lipids were extracted as described below. The radioactivity from aliquots of the incubation medium, supernatant and cells was determined by liquid scintillation counting using a LS6500-Scintillation System (Beckman).\n(§5) Alternatively, cells were resuspended in 1.5 ml of water and saponified with 2 ml of 10% KOH in ethanol. The total lipid extracts or the free fatty acids from the saponified samples were methylated using boron trifluoride in methanol at 90° C. for 30 min. The resultant methyl esters (FAME) were analyzed as described below.\n(§6) Analyses of radiolabelled FAME were carried out on a Hewlett Packard 1090, series II chromatograph equipped with a diode array detector set at 205 nm, a radioisotope detector (model 171, Beckman, CA) with a solid scintillation cartridge (97% efficiency for ^14C-detection) and a reverse phase ODS (C-18) Beckman column (250 mm×4.6 mm i.d.; 5 μm particle size) attached to a pre-column with a μBondapak C-18 (Beckman) insert. FAME were separated isocratically with acetonitrile/water (95.5 v/v) at a flow rate of 1 ml/min and were identified by comparison with authentic standards. Alternatively, the eluted FAME were collected and the solvent evaporated. FAME were re-dissolved in hexane for further analysis by gas chromatography."}, "20:4n-6": {"system": "20:4n-6", "assay": "Elongation of [1-14C]20:4n-6 in yeast expressing human elongases (RP-HPLC)", "details": "untagged elongase, 25 μM substrate", "text": "as §2, §3, §4, §5, §6"}, "18:3n-3": {"system": "18:3n-3", "assay": "Elongation of [1-14C]18:3n-3 in yeast expressing human elongases (RP-HPLC)", "details": "untagged elongase; 25 μM substrate; product 20:3n-3", "text": "as §2, §3, §4, §5, §6"}, "20:5n-3": {"system": "20:5n-3", "assay": "Elongation of [1-14C]20:5n-3 in yeast expressing human elongases (RP-HPLC)", "details": "untagged elongase; 25 μM substrate; product 22:5n-3", "text": "as §2, §3, §4\nAlternatively, cells were resuspended in 1.5 ml of water and saponified with 2 ml of 10% KOH in ethanol. The total lipid extracts or the free fatty acids from the saponified samples were methylated using boron trifluoride in methanol at 90° C. for 30 min. The resultant methyl esters (FAME) were analyzed as described below. […]"}, "[3]": {"details": "untagged elongase, 25 μM substrate"}},
  "data": [
    {"molecule": "CN(N=O)C(=O)N[C@H]1C(O)O[C@H](CO)[C@@H](O)[C@@H]1O", "note": "(stereo partly drawn) [STZ, 2-desoxy-2-methylnitrosoamino carbonyl amino-D-glucopyranose]", "values": [
      {"measurement": "% Decrease of D5D activity (20:3n-6 → 20:4n-6)", "setting": "D5D; 2 weeks post-induction", "result": 33, "unit": "%"},
      {"measurement": "% Decrease of D5D activity (20:3n-6 → 20:4n-6)", "setting": "D5D; 7 weeks post-induction", "result": 41, "unit": "%"},
      {"measurement": "Conversion of 18:2n-6 into 20:2n-6", "setting": "Leukocytes [1]; 2 weeks post-induction", "result": "322 ± 119 pmol of 20:2n-6 produced/mg cellular protein"},
      {"measurement": "Conversion of 18:2n-6 into 20:2n-6", "setting": "Leukocytes [1]; 7 weeks post-induction", "result": "147 ± 22 pmol of 20:2n-6 produced/mg cellular protein"},
      {"measurement": "changes in the elongation of 18:2n-6 to 20:2n-6", "setting": "Leukocytes [1]; leukocytes from animals sacrificed 7 weeks after the STZ treatment", "result": "no significant changes"},
      {"measurement": "reduction in the elongation of 18:2n-6 to 20:2n-6", "setting": "Leukocytes [1]; leukocytes obtained 2 weeks after the STZ injection", "result": "approximately 50%"},
      {"measurement": "% Decrease of Elongase activity (18:3n-6 → 20:3n-6)", "setting": "Elongase; 2 weeks post-induction", "result": 46, "unit": "%"},
      {"measurement": "% Decrease of Elongase activity (18:3n-6 → 20:3n-6)", "setting": "Elongase; 7 weeks post-induction", "result": 43, "unit": "%"},
      {"measurement": "% Decrease of D6D activity (18:2n-6 → 18:3n-6)", "setting": "D6D; 2 weeks post-induction", "result": 28, "unit": "%"},
      {"measurement": "% Decrease of D6D activity (18:2n-6 → 18:3n-6)", "setting": "D6D; 7 weeks post-induction", "result": 33, "unit": "%"},
      {"measurement": "Conversion of 18:3n-6 into 20:3n-6", "setting": "Leukocytes [2]; 2 weeks post-induction, incubation time 0 h", "result": "0 pmol of 20:3n-6 produced/mg cellular protein"},
      {"measurement": "Conversion of 18:3n-6 into 20:3n-6", "setting": "Leukocytes [2]; 2 weeks post-induction, incubation time 0.16 h, mean ± S.D. of 6 rats", "result": "50 ± 8 pmol of 20:3n-6 produced/mg cellular protein"},
      {"measurement": "Conversion of 18:3n-6 into 20:3n-6", "setting": "Leukocytes [2]; 2 weeks post-induction, incubation time 0.5 h, mean ± S.D. of 6 rats", "result": "115 ± 26 pmol of 20:3n-6 produced/mg cellular protein"},
      {"measurement": "Conversion of 18:3n-6 into 20:3n-6", "setting": "Leukocytes [2]; 2 weeks post-induction, incubation time 1 h, mean ± S.D. of 6 rats", "result": "288 ± 23 pmol of 20:3n-6 produced/mg cellular protein"},
      {"measurement": "Conversion of 18:3n-6 into 20:3n-6", "setting": "Leukocytes [2]; 7 weeks post-induction, incubation time 0 h", "result": "0 pmol of 20:3n-6 produced/mg cellular protein"},
      {"measurement": "Conversion of 18:3n-6 into 20:3n-6", "setting": "Leukocytes [2]; 7 weeks post-induction, incubation time 0.16 h, mean ± S.D. of 6 rats", "result": "37 ± 9 pmol of 20:3n-6 produced/mg cellular protein"},
      {"measurement": "Conversion of 18:3n-6 into 20:3n-6", "setting": "Leukocytes [2]; 7 weeks post-induction, incubation time 0.5 h, mean ± S.D. of 6 rats", "result": "112 ± 10 pmol of 20:3n-6 produced/mg cellular protein"},
      {"measurement": "Conversion of 18:3n-6 into 20:3n-6", "setting": "Leukocytes [2]; 7 weeks post-induction, incubation time 1 h, mean ± S.D. of 6 rats", "result": "190 ± 92 pmol of 20:3n-6 produced/mg cellular protein"},
      {"measurement": "Conversion of 18:3n-6 into 20:3n-6", "setting": "Leukocytes [2]; 7 weeks post-induction, incubation time 24 h, mean ± S.D. of 6 rats", "result": "1008 ± 98 pmol of 20:3n-6 produced/mg cellular protein"},
      {"measurement": "activity of the elongation system (18:3n-6 into 20:3n-6)", "setting": "Leukocytes [2]; STZ group versus control, regardless of the time after the last I.P. STZ injection", "result": "significant increase"}
    ]},
    {"molecule": "ELG2: human PUFA elongase expressed in yeast from plasmid pTh1014.1 (protein, UniProt Q9NYP7 1-299, looked up) Very long chain fatty acid …: MEHFDASLSTYFKALLGPRDTRVKGWFLLDNYIPTFICSVIYLLIVWLGPKYMRNKQPFSCRGILVVYNLGLTLLSLYMFCELVTGVWEGKYNFFCQGTRTAGESDMKIIRVLWWYYFSKLIEFMDTFFFILRKNNHQITVLHVYHHASMLNIWWFVMNWVPCGHSYFGATLNSFIHVLMYSYYGLSSVPSMRPYLWWKKYITQGQLLQFVLTIIQTSCGVIWPCTFPLGWLYFQIGYMISLIALFTNFYIQTYNKKGASRRKDHLKDHQNGSMAAVNGHTNSFSPLENNVKPRKLRKD", "values": [
      {"measurement": "Percent Elongation of 18:3n-6 to 20:3", "setting": "18:3n-6; V5-His tagged elongase", "result": 73, "unit": "%"},
      {"measurement": "Percent Elongation of 18:3n-6 to 22:3", "setting": "18:3n-6; V5-His tagged elongase", "result": 11, "unit": "%"},
      {"measurement": "Percent Elongation of 18:3n-6 to 20:3", "setting": "18:3n-6; [3]", "result": 62, "unit": "%"},
      {"measurement": "Percent Elongation of 18:3n-6 to 22:3", "setting": "18:3n-6; [3]", "result": 3, "unit": "%"},
      {"measurement": "Percent Elongation of 20:4n-6 to 22:4", "setting": "20:4n-6; product 22:4n-6", "result": 39, "unit": "%"},
      {"measurement": "Percent Elongation of 20:4n-6 to 24:4", "setting": "20:4n-6; product 24:4n-6", "result": 1, "unit": "%"},
      {"measurement": "Percent Elongation of 18:3n-3 to 20:3", "setting": "18:3n-3", "result": 16, "unit": "%"},
      {"measurement": "Percent Elongation of 20:5n-3 to 22:5", "setting": "20:5n-3", "result": 59, "unit": "%"}
    ]}
  ]
}
